Data taken from patent US20240116892A1, “HETEROCYCLIC AMIDE AND UREA COMPOUNDS AS JAK2 INHIBITORS” (Ajax Therapeutics, Inc., priority 2022, published 2024).

biological target: JAK2 (JH1 domain-catalytic, Y1007F, Y1008F) kinase (Homo sapiens (Human), UniProt O60674, Y1007F/Y1008F); assay: JAK2 JH1 Domain Binding Assay; settings: qPCR readout
Method in brief: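 JH1 catalytic domain (Y1007F/Y1008F) expressed as NFkB DNA-binding-domain fusion in HEK293 cells, DNA-tagged. Competition with immobilized biotinylated ligand on streptavidin beads, 1 h at RT in PBS/Tween/BSA/DTT; bound kinase eluted with free ligand and quantified by qPCR.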

Sequence of JAK2 (JH1 domain-catalytic, Y1007F, Y1008F) kinase (O60674 849-1124 Y1007F/Y1008F): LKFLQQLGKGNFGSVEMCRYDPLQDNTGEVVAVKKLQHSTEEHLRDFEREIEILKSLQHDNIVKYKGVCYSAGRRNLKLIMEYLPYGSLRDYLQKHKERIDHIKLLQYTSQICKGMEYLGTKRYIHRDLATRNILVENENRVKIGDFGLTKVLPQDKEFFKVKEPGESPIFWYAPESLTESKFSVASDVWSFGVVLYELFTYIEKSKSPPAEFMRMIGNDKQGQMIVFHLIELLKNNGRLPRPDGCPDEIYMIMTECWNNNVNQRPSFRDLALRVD

`COc1n[nH]c2ncc(N3CC[C@@H](N(C)C(=O)Nc4cc(C(F)(F)F)cn(C)c4=O)[C@H](F)C3)cc12` [Example I-84-b, 1-((3R,4R)-3-fluoro-1-(3-methoxy-1H-pyrazolo[3,4-b]pyridin-5-yl)piperidin-4-yl)-1-methyl-3-(1-methyl-2-oxo-5-(trifluoromethyl)-1,2-dihydropyridin-3-yl)urea] was tested. Which Kd did it give?
Its Kd is less than 0.01 µM.

For `Cn1cc(C(F)(F)F)cc(NC(=O)C2(C3CCN(c4cnc5[nH]ccc5n4)CC3)CC2)c1=O` [Example I-85, 1-(1-(5H-pyrrolo[2,3-b]pyrazin-2-yl)piperidin-4-yl)-N-(1-methyl-2-oxo-5-(trifluoromethyl)-1,2-dihydropyridin-3-yl)cyclopropane-1-carboxamide], which Kd is on record?
Its Kd is less than 0.01 µM.

How did the Kd turn out when `CN(C(=O)Nc1cc(C(F)(F)F)cn(C)c1=O)C1CCN(c2cnc3[nH]n(C)c(=O)c3c2)CC1` [Example I-86, 1-methyl-3-(1-methyl-2-oxo-5-(trifluoromethyl)-1,2-dihydropyridin-3-yl)-1-(1-(2-methyl-3-oxo-2,3-dihydro-1H-pyrazolo[3,4-b]pyridin-5-yl)piperidin-4-yl)urea] was run?
The Kd was less than 0.01 µM.

With `COc1n[nH]c2ncc(N3CC[C@@H](N(C)C(=O)Nc4cc(C(F)(F)F)cn(C)c4=O)[C@@H](F)C3)cc12` [Example I-87-a, 1-((3S,4R)-3-fluoro-1-(3-methoxy-1H-pyrazolo[3,4-b]pyridin-5-yl)piperidin-4-yl)-1-methyl-3-(1-methyl-2-oxo-5-(trifluoromethyl)-1,2-dihydropyridin-3-yl)urea] as the compound, how does the Kd read?
Its Kd is less than 0.01 µM.

For `COc1n[nH]c2ncc(N3CC[C@H](N(C)C(=O)Nc4cc(C(F)(F)F)cn(C)c4=O)[C@H](F)C3)cc12` [Example I-87-b, 1-((3R,4S)-3-fluoro-1-(3-methoxy-1H-pyrazolo[3,4-b]pyridin-5-yl)piperidin-4-yl)-1-methyl-3-(1-methyl-2-oxo-5-(trifluoromethyl)-1,2-dihydropyridin-3-yl)urea], which Kd is on record?
The Kd was less than 0.01 µM.

How did the Kd turn out when `CO[C@H]1CN(c2cnc3[nH]ncc3c2)CC[C@H]1N(C)C(=O)Nc1cc(C(F)(F)F)cn(C)c1=O` [Example I-88-a, 1-((3S,4R)-3-methoxy-1-(1H-pyrazolo[3,4-b]pyridin-5-yl)piperidin-4-yl)-1-methyl-3-(1-methyl-2-oxo-5-(trifluoromethyl)-1,2-dihydropyridin-3-yl)urea] was run?
Its Kd is less than 0.01 µM.

How did the Kd turn out when `CO[C@@H]1CN(c2cnc3[nH]ncc3c2)CC[C@@H]1N(C)C(=O)Nc1cc(C(F)(F)F)cn(C)c1=O` [Example I-88-b, 1-((3R,4S)-3-methoxy-1-(1H-pyrazolo[3,4-b]pyridin-5-yl)piperidin-4-yl)-1-methyl-3-(1-methyl-2-oxo-5-(trifluoromethyl)-1,2-dihydropyridin-3-yl)urea] was run?
The Kd was less than 0.01 µM.

How did the Kd turn out when `CN(C(=O)Nc1cc(C(F)(F)F)cn(C)c1=O)[C@@H]1CCN(c2cnc3[nH]n(C)c(=O)c3c2)C[C@@H]1F` [Example I-89-a, 1-((3S,4R)-3-fluoro-1-(2-methyl-3-oxo-2,3-dihydro-1H-pyrazolo[3,4-b]pyridin-5-yl)piperidin-4-yl)-1-methyl-3-(1-methyl-2-oxo-5-(trifluoromethyl)-1,2-dihydropyridin-3-yl)urea] was run?
The Kd was 0.01 to 0.05 µM.

`CN(C(=O)Nc1cc(C(F)(F)F)cn(C)c1=O)[C@H]1CCN(c2cnc3[nH]n(C)c(=O)c3c2)C[C@H]1F` [Example I-89-b, 1-((3R,4S)-3-fluoro-1-(2-methyl-3-oxo-2,3-dihydro-1H-pyrazolo[3,4-b]pyridin-5-yl)piperidin-4-yl)-1-methyl-3-(1-methyl-2-oxo-5-(trifluoromethyl)-1,2-dihydropyridin-3-yl)urea] was tested. Which Kd did it give?
The Kd was 0.01 to 0.05 µM.

With `CN(C(=O)Nc1cc(C(F)(F)F)cn(C)c1=O)[C@@H]1CCN(c2cnc3[nH]n(C)c(=O)c3c2)C[C@H]1F` [Example I-90-b, 1-((3R,4R)-3-fluoro-1-(2-methyl-3-oxo-2,3-dihydro-1H-pyrazolo[3,4-b]pyridin-5-yl)piperidin-4-yl)-1-methyl-3-(1-methyl-2-oxo-5-(trifluoromethyl)-1,2-dihydropyridin-3-yl)urea] as the compound, how does the Kd read?
The Kd was 0.01 to 0.05 µM.

Which Kd does the source give for `CN(C(=O)Nc1cc(C(F)(F)F)cn(C)c1=O)C1CCN(c2cnc3cncn3c2)CC1` [Example I-91, 1-(1-(imidazo[1,5-a]pyrimidin-3-yl)piperidin-4-yl)-1-methyl-3-(1-methyl-2-oxo-5-(trifluoromethyl)-1,2-dihydropyridin-3-yl)urea] here?
Its Kd is 0.05 to 1 µM.

How did the Kd turn out when `CNc1cn2ncc(N3CCC(N(C)C(=O)Nc4cc(C(F)(F)F)cn(C)c4=O)CC3)c2cn1` [Example I-92, 1-methyl-3-(1-methyl-2-oxo-5-(trifluoromethyl)-1,2-dihydropyridin-3-yl)-1-(1-(6-(methylamino)pyrazolo[1,5-a]pyrazin-3-yl)piperidin-4-yl)urea] was run?
Its Kd is 0.01 to 0.05 µM.

With `Cn1cc(C(F)(F)F)cc(NC(=O)N2CC=CC23CCN(c2cnc4[nH]cc(F)c4n2)CC3)c1=O` [Example I-93, 8-(7-fluoro-5H-pyrrolo[2,3-b]pyrazin-2-yl)-N-(1-methyl-2-oxo-5-(trifluoromethyl)-1,2-dihydropyridin-3-yl)-1,8-diazaspiro[4.5]dec-3-ene-1-carboxamide] as the compound, how does the Kd read?
Its Kd is 0.01 to 0.05 µM.

`COc1c[nH]c2ncc(N3CCC(N(C)C(=O)Nc4cc(C(F)(F)F)cn(C)c4=O)CC3)cc12` [Example I-94, 1-(1-(3-methoxy-1H-pyrrolo[2,3-b]pyridin-5-yl)piperidin-4-yl)-1-methyl-3-(1-methyl-2-oxo-5-(trifluoromethyl)-1,2-dihydropyridin-3-yl)urea] was tested. Which Kd did it give?
Its Kd is less than 0.01 µM.

Which Kd does the source give for `CN(C(=O)Nc1cc(C(F)(F)F)cn(C)c1=O)[C@H]1CCN(c2cnc3cn[nH]c3c2)C[C@H]1F` [Example I-95-a, 1-((3R,4S)-3-fluoro-1-(1H-pyrazolo[4,3-b]pyridin-6-yl)piperidin-4-yl)-1-methyl-3-(1-methyl-2-oxo-5-(trifluoromethyl)-1,2-dihydropyridin-3-yl)urea] here?
The Kd was less than 0.01 µM.

For `CN(C(=O)Nc1cc(C(F)(F)F)cn(C)c1=O)[C@@H]1CCN(c2cnc3cn[nH]c3c2)C[C@@H]1F` [Example I-95-b, 1-((3S,4R)-3-fluoro-1-(1H-pyrazolo[4,3-b]pyridin-6-yl)piperidin-4-yl)-1-methyl-3-(1-methyl-2-oxo-5-(trifluoromethyl)-1,2-dihydropyridin-3-yl)urea], which Kd is on record?
Its Kd is less than 0.01 µM.

How did the Kd turn out when `CN(C(=O)Nc1cc(C(F)(F)F)cn(C)c1=O)[C@@H]1CCN(c2cnc3[nH]n(C)c(=O)c3c2)CC1(F)F` [Example I-96-a, (R)-1-(3,3-difluoro-1-(2-methyl-3-oxo-2,3-dihydro-1H-pyrazolo[3,4-b]pyridin-5-yl)piperidin-4-yl)-1-methyl-3-(1-methyl-2-oxo-5-(trifluoromethyl)-1,2-dihydropyridin-3-yl)urea] was run?
Its Kd is 0.01 to 0.05 µM.

With `CN(C(=O)Nc1cc(C(F)(F)F)cn(C)c1=O)[C@H]1CCN(c2cnc3[nH]n(C)c(=O)c3c2)CC1(F)F` [Example I-96-b, (S)-1-(3,3-difluoro-1-(2-methyl-3-oxo-2,3-dihydro-1H-pyrazolo[3,4-b]pyridin-5-yl)piperidin-4-yl)-1-methyl-3-(1-methyl-2-oxo-5-(trifluoromethyl)-1,2-dihydropyridin-3-yl)urea] as the compound, how does the Kd read?
The Kd was less than 0.01 µM.

Which Kd does the source give for `CNc1n[nH]c2ncc(N3CC[C@@H](N(C)C(=O)Nc4cc(C(F)(F)F)cn(C)c4=O)[C@@H](F)C3)cc12` [Example I-97-a, 1-((3S,4R)-3-fluoro-1-(3-(methylamino)-1H-pyrazolo[3,4-b]pyridin-5-yl)piperidin-4-yl)-1-methyl-3-(1-methyl-2-oxo-5-(trifluoromethyl)-1,2-dihydropyridin-3-yl)urea] here?
Its Kd is less than 0.01 µM.

Which Kd does the source give for `CNc1n[nH]c2ncc(N3CC[C@H](N(C)C(=O)Nc4cc(C(F)(F)F)cn(C)c4=O)[C@H](F)C3)cc12` [Example I-97-b, 1-((3R,4S)-3-fluoro-1-(3-(methylamino)-1H-pyrazolo[3,4-b]pyridin-5-yl)piperidin-4-yl)-1-methyl-3-(1-methyl-2-oxo-5-(trifluoromethyl)-1,2-dihydropyridin-3-yl)urea] here?
The Kd was less than 0.01 µM.

`Cn1cc(C(F)(F)F)cc(NC(=O)N2CC=CC23CCN(c2cnc4[nH]cc(C#N)c4n2)CC3)c1=O` [Example I-98, 8-(7-cyano-5H-pyrrolo[2,3-b]pyrazin-2-yl)-N-(1-methyl-2-oxo-5-(trifluoromethyl)-1,2-dihydropyridin-3-yl)-1,8-diazaspiro[4.5]dec-3-ene-1l-carboxamide] was tested. Which Kd did it give?
Its Kd is 0.01 to 0.05 µM.

For `CNc1n[nH]c2ncc(N3CCC(N(C)C(=O)Nc4cc(C(F)(F)F)cn(C)c4=O)CC3)cc12` [Example I-99, 1-methyl-3-(1-methyl-2-oxo-5-(trifluoromethyl)-1,2-dihydropyridin-3-yl)-1-(1-(3-(methylamino)-1H-pyrazolo[3,4-b]pyridin-5-yl)piperidin-4-yl)urea], which Kd is on record?
Its Kd is less than 0.01 µM.

Which Kd does the source give for `CN(C(=O)Nc1cc(C(F)(F)F)cn(C)c1=O)[C@H]1CCN(c2cnc3[nH]c(=O)[nH]c3c2)C[C@H]1F` [Example I-100-a, 1-((3R,4S)-3-fluoro-1-(2-oxo-2,3-dihydro-1H-imidazo[4,5-b]pyridin-6-yl)piperidin-4-yl)-1-methyl-3-(1-methyl-2-oxo-5-(trifluoromethyl)-1,2-dihydropyridin-3-yl)urea] here?
Its Kd is less than 0.01 µM.

`CN(C(=O)Nc1cc(C(F)(F)F)cn(C)c1=O)[C@@H]1CCN(c2cnc3[nH]c(=O)[nH]c3c2)C[C@@H]1F` [Example I-100-b, 1-((3S,4R)-3-fluoro-1-(2-oxo-2,3-dihydro-1H-imidazo[4,5-b]pyridin-6-yl)piperidin-4-yl)-1-methyl-3-(1-methyl-2-oxo-5-(trifluoromethyl)-1,2-dihydropyridin-3-yl)urea] was tested. Which Kd did it give?
The Kd was less than 0.01 µM.

Which Kd does the source give for `CN(C(=O)Nc1cc(C(F)(F)F)cn(C)c1=O)[C@@H]1CCN(c2cnc3[nH]nc(OC4COC4)c3c2)C[C@@H]1F` [Example I-101-a, 1-((3S,4R)-3-fluoro-1-(3-(oxetan-3-yloxy)-1H-pyrazolo[3,4-b]pyridin-5-yl)piperidin-4-yl)-1-methyl-3-(1-methyl-2-oxo-5-(trifluoromethyl)-1,2-dihydropyridin-3-yl)urea] here?
The Kd was 1 to 5 µM.
